These results are taken from patent publication US5260330A, “Substituted anilides” (BASF Aktiengesellschaft, priority 1990, dated 1993).

For this assay, the system named is guinea pig hearts. The assay can be described thus: ECG measurement of QT interval prolongation in isolated guinea pig hearts (Langendorff perfusion). On the set-up: species or system guinea pig (male Duncin-Hartley). As to conditions: for EC20: Cavia porcellus, 0.25 h, isolated guinea pig heart, Langendorff perfusion, 37° C, cumulative administration at 15 min intervals into the perfusate, ED20% by linear regression of log dose, read-out: ED20% (dose at which there is a 20% increase in the QT interval from the initial figure); for Relative effect ED20% (D-sotalol)/ED20% (Ex.): ratio relative to D-sotalol, QT interval, guinea pig heart. From the text: In these the cardiac cycle is divided into systole (contraction of the heart), also called QT interval, and diastole (relaxation of the heart with filling of the ventricles). Repolarization inhibitors increase the QT interval with a negligible effect on the atrioventricular conduction time (PQ interval) and the period of isometric contraction (QRS time, from the start of systole until the semilunar valves open) (see Pschyrembel, 254th edition, 1982).
The activity of the compounds according to the invention as repolarization inhibitors can be investigated in animal experiments by ECG measurements on, for example, guinea pig hearts (see Basic Res. Cardiol. 82 (1987) 437; J. Pharmacol. Methods 21 (1989) 195). Used to compare the activities of a number of substances is, for example, the dose of an agent at which there is a 20% increase in the QT interval from the initial figure (ED20%).This is done by plotting the logarithm of the doses of the particular substances against the experimentally found relative changes in the QT interval, and using linear regression to determine the equation of a straight line from which the ED20% can be calculated.
This method was used to determine the ED20% values for the compounds of Examples 2 and 3 (see Table). D-sotalol was used as comparative substance.
The experimental animals were male Duncin-Hartley guinea pigs with a body weight of 300 to 350 g. 30 min after administration of 1250 I.U. of heparin/kg of body weight into the abdominal cavity, the animals were sacrificed by a blow to the back of the neck. After the common carotid arteries had been cut for exsanguination, the thoracic cavity was opened, and the heart was dissected out and attached to a perfusion apparatus. The Langendorff perfusion was carried out with Krebs-Henseleit solution (NaCl 6896 mg/l; KCl 350 mg/l; MgSO4 285 mg/l; CaCl2 370 mg/l; KH2 PO4 161 mg/l; NaHCO3 2090 mg/l; glucose 2000 mg/l) enriched with oxygen and heated to 37° C. The perfusion volume per unit time was adjusted to 4 to 6 ml/min for a total volume of 100 ml, and the perfusion pressure was adjusted to 60 to 70 mm Hg. Circulating perfusion was carried out after equilibration for 30 min.
The ECG measurements were made via two silver electrodes attached to the surface of the heart in the upper region of the left coronary artery and on the rear of the heart at the level of the valve plane. The PQ and QT intervals, the QRS time and the heart rate were measured.
The substance was administered cumulatively at intervals of 15 min into the perfusate.

Counter-ions that a name gives are not always drawn.

Consider `Cc1ccccc1C=CC(=O)Nc1cc(C)c(OCCN2CCCC2)c(C)c1` [Example 2, [3',5'-Dimethyl-4'-(2-(N-pyrrolidinyl)ethoxy)]-(2-methylphenyl)acrylanilidefumarate], for which the EC20 came out at 500 nM and the “Relative effect ED20% (D-sotalol)/ED20% (Ex.)” value is listed as 32. In the case of `CC(C)NCC(O)c1ccc(NS(C)(=O)=O)cc1` [D-sotalol, 4'-[1-hydroxy-2-(isopropylamino)ethyl]methanesulfonanilide, reference compound], the EC20 was found to be 16000 nM. For the compound `Cc1ccccc1CCC(=O)Nc1cc(C)c(OCCN2CCCC2)c(C)c1` [Example 3, [3',5'-Dimethyl-4'-(2-(N-pyrrolidinyl)ethoxy)]-3-(2-methylphenyl)propionanilide fumarate], the EC20 came to 310 nM and the “Relative effect ED20% (D-sotalol)/ED20% (Ex.)” value was determined as 51.
